The values that follow are results of earlier work, collected in patent publication US20100047176A1, “Method and Kit for Testing Stress Effects in Living Organisms” (AARHUS UNIVERSITET, priority 2007, published 2010).

Structures are written as SMILES. ≈ marks a conversion by molar mass, not a printed value.

For series [1] the following is noted: at 25° C.
In series [2] the test system is fish and aquatic invertebrates. The settings on record: if it reaches water bodies.

Take `O=C(O)CNCP(=O)(O)O` [Glyphosate]: the water solubility in series [1] is 11.6 g/L (≈ 68.6 mM).
For `CCC(CC)Nc1c([N+](=O)[O-])cc(C)c(C)c1[N+](=O)[O-]` [Pendimethalin], the “toxicity to fish / aquatic invertebrates” value in series [2] was “toxic to fish”.
